{"source": "paper PMC6027665", "about": "“Synthesis and Cytotoxicity Evaluation of Novel Asymmetrical Mono-Carbonyl Analogs of Curcumin (AMACs) against Vero, HeLa, and MCF7 Cell Lines” (Scientia Pharmaceutica, 2018)", "key": {"[1]": {"system": "MCF7 cell lines (human estrogen-dependent breast carcinoma, ATCC HTB-22)", "test": "MTT proliferation assay, MCF7 cell lines", "type": "cell-based", "description": "(§1) The cytotoxic activity of the synthesized compounds was evaluated against human cervix carcinoma (HeLa, ATCC CCL-2) cell lines, human estrogen-dependent breast carcinoma (MCF7, ATCC HTB-22) cell lines, and kidney of an African green monkey (Vero, ATCC CCL-81) as a normal cell lines using the methyl thiazolyl tetrazolium (MTT) method conducted according to the MTT assay protocol published by the American Type Culture Collection (ATCC). Cisplatin was used as a reference drug. Curcumin was also evaluated as a comparative compound on the tests against Vero and MCF7 cell lines, and doxorubicin was evaluated as an additional comparator on the test against MCF7 cell lines. The assay detects the reduction of yellow tetrazolium (MTT) by metabolically active cells to be purple formazan measured using spectrophotometry.\n(§2) The cells lines were seeded into 96-well plates at a density of 5000 cells per well, replenished with growth media consisting of Dulbecco’s Modified Eagle’s medium (D-MEM) for Vero or Roswell Park Memorial Institute (RPMI) 1640 medium for MCF7 and HeLa, 5% Fetal Bovine Serum (FBS), 100 U/mL penicillin, and 100 μg/mL streptomycin. The cells were incubated at 37 °C in 5% CO2 for 24 h. Then, a series concentrations of the tested compounds (1.5, 3.1, 6.2, 12.5, 25.0, 50.0, 100.0, and 200.0 µg/mL) were added to each well of the plate and incubated for 48 h. After that, 10 μL fresh solution of MTT reagent was added to each well, and the plate was incubated in a CO2 incubator at 37 °C for 4 h. After the purple precipitate was obtained, the cells were dissolved in ethanol and their optical density was recorded at 595 nm. The experiment was performed in triplicate. Percent proliferation inhibition was calculated using the following formula: Viability cells inhibition (%)=100−[(At−Ab)/(Ac−Ab)] ×100%\n(§3) At = absorption of test compound, Ab = absorption of blank, Ac = absorption of control.\n(§4) The concentration of the synthesized compounds required to inhibit 50% of the growth of the cell lines (IC50 values) was calculated by analyzing the relationship between concentrations and percent (%) inhibitions using GraphPad Prism 7 version 7.00 for Windows, GraphPad Software, La Jolla, CA, USA, www.graphpad.com."}, "[2]": {"system": "HeLa cell lines (human cervix carcinoma, ATCC CCL-2)", "parameters": "method as in doi:10.1016/j.toxlet.2016.06.1915", "conditions": "value of an earlier study; cited from earlier work"}, "[3]": {"system": "HeLa cell lines (human cervix carcinoma, ATCC CCL-2)", "test": "MTT proliferation assay, HeLa cell lines", "type": "cell-based", "conditions": "48 h incubation, mean ± SD (n = 3)", "description": "as §1, §2, §3, §4"}, "[4]": {"system": "Vero cell lines (ATCC CCL-81)", "test": "MTT proliferation assay, Vero cell lines (normal cells)", "type": "cell-based, African green monkey", "conditions": "48 h incubation, mean ± SD (n = 3)", "description": "as §1, §2, §3, §4"}, "Artemia salina L. larvae": {"system": "Artemia salina L. larvae", "test": "Brine shrimp lethality test (BSLT)", "type": "in vivo", "conditions": "Artemia salina, read-out: BSLT toxicity level", "description": "(§5) The assay was carried out according to the principle and protocol previously described by Meyer, with slight modification. Artemia salina L. eggs were inserted into a box containing seawater; the box was placed under UV lamp, and after 48 h the eggs hatched into larvae and ready for the test. The compounds (1a–1e, 2a–2e) were diluted in 10 mL seawater containing 10 larvae (1% DMSO (v/v)) until concentrations 20, 200, 500, and 1000 ppm were reached. After 24 h, the live and dead shrimp were counted. The mortality rate (%) was obtained by comparing the number of total dead larvae and the total number of larvae. The experiment was conducted in triplicate. The concentrations (dose)-response (% mortality) data were transformed into a straight line using a logit transformation, and the concentration required to kill 50% of the population (LC50 values) was derived from the best fit line obtained by linear regression analysis."}, "[5]": {"test": "Brine shrimp lethality test (BSLT)", "type": "in vivo", "conditions": "Artemia salina (brine shrimp) larvae, in vivo, other: compound diluted in the seawater holding the larvae; brine shrimp larvae, 24 h, triplicate", "description": "as §5"}, "[6]": {"conditions": "Homo sapiens, MCF7, 48 h incubation, mean ± SD (n = 3), read-out: IC50 (µM) MCF7"}}, "note": "Like-named read-outs stand apart in the source and are kept apart here.", "data": [{"smiles": "N.N.[Cl][Pt][Cl]", "note": "[Cisplatin, reference compound]", "values": [{"measurement": "IC50", "setting": "[1]; 48 h incubation, mean ± SD (n = 3), read-out: IC50 (µM) MCF7", "result": "12.8 ± 1.35", "unit": "µM"}, {"measurement": "IC50", "setting": "[2]", "result": 12.3, "unit": "µM"}, {"measurement": "IC50", "setting": "[3]", "result": "67.6 ± 2.04", "unit": "µM"}, {"measurement": "IC50", "setting": "[4]", "result": "84.7 ± 2.09", "unit": "µM"}]}, {"smiles": "COc1cc(/C=C2\\CCC/C(=C\\c3ccccc3)C2=O)ccc1O", "note": "[Compound 1a, (2E,6E)-2-[(4-hydroxy-3-methoxyphenyl)methylidene]-6-(phenylmethylidene)cyclohexan-1-one]", "values": [{"measurement": "IC50", "setting": "[1]; [6]", "result": "> 100", "unit": "µM"}, {"measurement": "IC50", "setting": "[3]; Homo sapiens", "result": "> 100", "unit": "µM"}, {"measurement": "LC50", "setting": "Artemia salina L. larvae", "result": "30 to 100", "unit": "µg/mL"}, {"measurement": "LC50 at 24 h", "setting": "[5]", "result": 197, "unit": "µM"}, {"measurement": "IC50", "setting": "[4]; Chlorocebus sabaeus, Vero", "result": "13.98 ± 0.04", "unit": "µM"}]}, {"smiles": "COc1ccc(/C=C2\\CCC/C(=C\\c3ccc(O)c(OC)c3)C2=O)cc1", "note": "[Compound 1b, (2E,6E)-2-[(4-hydroxy-3-methoxyphenyl)methylidene]-6-[(4-methoxyphenyl)methylidene] cyclohexan-1-one]", "values": [{"measurement": "IC50", "setting": "[1]; [6]", "result": "7.86 ± 1.05", "unit": "µM"}, {"measurement": "IC50", "setting": "[1]; Homo sapiens, MCF7, same value in µg/mL, read-out: IC50 MCF7", "result": 2.75, "unit": "µg/mL"}, {"measurement": "IC50", "setting": "[3]; Homo sapiens", "result": "95.5 ± 7.19", "unit": "µM"}, {"measurement": "LC50", "setting": "Artemia salina L. larvae", "result": "100 to 1000", "unit": "µg/mL"}, {"measurement": "LC50 at 24 h", "setting": "[5]", "result": 323, "unit": "µM"}, {"measurement": "IC50", "setting": "[4]; Chlorocebus sabaeus, Vero", "result": "15.4 ± 0.34", "unit": "µM"}]}, {"smiles": "COc1cc(/C=C2\\CCC/C(=C\\c3ccc(F)cc3)C2=O)ccc1O", "note": "[Compound 1c, (2E,6E)-2-[(4-hydroxy-3-methoxyphenyl)methylidene]-6-[(4-fluorophenyl)methylidene] cyclohexan-1-one]", "values": [{"measurement": "IC50", "setting": "[1]; [6]", "result": "10.9 ± 0.79", "unit": "µM"}, {"measurement": "IC50", "setting": "[3]; Homo sapiens", "result": "49.1 ± 1.17", "unit": "µM"}, {"measurement": "LC50", "setting": "Artemia salina L. larvae", "result": "30 to 100", "unit": "µg/mL"}, {"measurement": "LC50 at 24 h", "setting": "[5]", "result": 177, "unit": "µM"}, {"measurement": "IC50", "setting": "[4]; Chlorocebus sabaeus, Vero", "result": "13.4 ± 0.39", "unit": "µM"}]}, {"smiles": "COc1cc(/C=C2\\CCC/C(=C\\c3ccc(Cl)cc3)C2=O)ccc1O", "note": "[Compound 1d, (2E,6E)-2-[(4-hydroxy-3-methoxyphenyl)methylidene]-6-[(4-chlorophenyl)methylidene] cyclohexan-1-one]", "values": [{"measurement": "IC50", "setting": "[1]; [6]", "result": "35.9 ± 4.57", "unit": "µM"}, {"measurement": "IC50", "setting": "[3]; Homo sapiens", "result": "55.6 ± 1.49", "unit": "µM"}, {"measurement": "LC50", "setting": "Artemia salina L. larvae", "result": "30 to 100", "unit": "µg/mL"}, {"measurement": "LC50 at 24 h", "setting": "[5]", "result": 204, "unit": "µM"}, {"measurement": "IC50", "setting": "[4]; Chlorocebus sabaeus, Vero", "result": "14.1 ± 0.18", "unit": "µM"}]}, {"smiles": "COc1cc(/C=C2\\CCC/C(=C\\c3ccc(C)cc3)C2=O)ccc1O", "note": "[Compound 1e, (2E,6E)-2-[(4-hydroxy-3-methoxyphenyl)methylidene]-6-[(4-methylphenyl)methylidene] cyclohexan-1-one]", "values": [{"measurement": "IC50", "setting": "[1]; [6]", "result": "10.4 ± 0.36", "unit": "µM"}, {"measurement": "IC50", "setting": "[3]; Homo sapiens", "result": "61.2 ± 2.86", "unit": "µM"}, {"measurement": "LC50", "setting": "Artemia salina L. larvae", "result": "< 30", "unit": "µg/mL"}, {"measurement": "LC50 at 24 h", "setting": "[5]", "result": 78.7, "unit": "µM"}, {"measurement": "IC50", "setting": "[4]; Chlorocebus sabaeus, Vero", "result": "16.1 ± 0.18", "unit": "µM"}]}, {"smiles": "CCN(CC)Cc1cc(/C=C2\\CCC/C(=C\\c3ccccc3)C2=O)cc(OC)c1O", "note": "[Compound 2a, (2E,6E)-2-({3-[(diethylamino)methyl]-4-hydroxy-5-methoxyphenyl}methylidene)-6-(phenylmethylidene)cyclohexan-1-one]", "values": [{"measurement": "IC50", "setting": "[3]; Homo sapiens", "result": "46.6 ± 1.54", "unit": "µM"}, {"measurement": "LC50", "setting": "Artemia salina L. larvae", "result": "100 to 1000", "unit": "µg/mL"}, {"measurement": "LC50 at 24 h", "setting": "[5]", "result": 921, "unit": "µM"}, {"measurement": "IC50", "setting": "[4]; Chlorocebus sabaeus, Vero", "result": "4.14 ± 0.21", "unit": "µM"}]}, {"smiles": "CCN(CC)Cc1cc(/C=C2\\CCC/C(=C\\c3ccc(OC)cc3)C2=O)cc(OC)c1O", "note": "[Compound 2b, (2E,6E)-2-({3-[(diethylamino)methyl]-4-hydroxy-5-methoxyphenyl}methylidene)-6-[(4-methoxyphenyl)methylidene]cyclohexan-1-one]", "values": [{"measurement": "IC50", "setting": "[3]; Homo sapiens", "result": "69.3 ± 3.17", "unit": "µM"}, {"measurement": "LC50", "setting": "Artemia salina L. larvae", "result": "30 to 100", "unit": "µg/mL"}, {"measurement": "LC50 at 24 h", "setting": "[5]", "result": 80.2, "unit": "µM"}, {"measurement": "IC50", "setting": "[4]; Chlorocebus sabaeus, Vero", "result": "7.29 ± 0.12", "unit": "µM"}]}, {"smiles": "CCN(CC)Cc1cc(/C=C2\\CCC/C(=C\\c3ccc(F)cc3)C2=O)cc(OC)c1O", "note": "[Compound 2c, (2E,6E)-2-({3-[(diethylamino)methyl]-4-hydroxy-5-methoxyphenyl}methylidene)-6-[(4-fluorophenyl)methylidene]cyclohexan-1-one]", "values": [{"measurement": "IC50", "setting": "[3]; Homo sapiens", "result": "41.1 ± 0.16", "unit": "µM"}, {"measurement": "LC50", "setting": "Artemia salina L. larvae", "result": "30 to 100", "unit": "µg/mL"}, {"measurement": "LC50 at 24 h", "setting": "[5]", "result": 88.4, "unit": "µM"}, {"measurement": "IC50", "setting": "[4]; Chlorocebus sabaeus, Vero", "result": "4.23 ± 0.32", "unit": "µM"}]}, {"smiles": "CCN(CC)Cc1cc(/C=C2\\CCC/C(=C\\c3ccc(Cl)cc3)C2=O)cc(OC)c1O", "note": "[Compound 2d, (2E,6E)-2-({3-[(diethylamino)methyl]-4-hydroxy-5-methoxyphenyl}methylidene)-6-[(4-chlorophenyl)methylidene]cyclohexan-1-one]", "values": [{"measurement": "IC50", "setting": "[3]; Homo sapiens", "result": "40.6 ± 0.98", "unit": "µM"}, {"measurement": "LC50", "setting": "Artemia salina L. larvae", "result": "< 30", "unit": "µg/mL"}, {"measurement": "LC50 at 24 h", "setting": "[5]", "result": 29.8, "unit": "µM"}, {"measurement": "IC50", "setting": "[4]; Chlorocebus sabaeus, Vero", "result": "3.94 ± 0.07", "unit": "µM"}]}, {"smiles": "CCN(CC)Cc1cc(/C=C2\\CCC/C(=C\\c3ccc(C)cc3)C2=O)cc(OC)c1O", "note": "[Compound 2e, (2E,6E)-2-({3-[(diethylamino)methyl]-4-hydroxy-5-methoxyphenyl}methylidene)-6-[(4-methylphenyl)methylidene]cyclohexan-1-one]", "values": [{"measurement": "IC50", "setting": "[1]; [6]", "result": "14.6 ± 1.96", "unit": "µM"}, {"measurement": "IC50", "setting": "[3]; Homo sapiens", "result": "76.6 ± 4.27", "unit": "µM"}, {"measurement": "LC50", "setting": "Artemia salina L. larvae", "result": "100 to 1000", "unit": "µg/mL"}, {"measurement": "LC50 at 24 h", "setting": "[5]", "result": 1700, "unit": "µM"}, {"measurement": "IC50", "setting": "[4]; Chlorocebus sabaeus, Vero", "result": "15.02 ± 0.14", "unit": "µM"}]}, {"smiles": "COc1cc(/C=C/C(=O)CC(=O)/C=C/c2ccc(O)c(OC)c2)ccc1O", "note": "[Curcumin]", "values": [{"measurement": "IC50", "setting": "[1]; [6]", "result": "10.5 ± 1.1", "unit": "µM"}, {"measurement": "IC50", "setting": "[4]; Chlorocebus sabaeus, Vero", "result": "31.4 ± 0.41", "unit": "µM"}]}, {"smiles": "COc1cccc2c1C(=O)c1c(O)c3c(c(O)c1C2=O)C[C@@](O)(C(=O)CO)C[C@@H]3O[C@H]1C[C@H](N)[C@H](O)[C@H](C)O1", "note": "[Doxorubicin, reference compound]", "values": [{"measurement": "IC50", "setting": "[1]; [6]", "result": "< 2.94", "unit": "µM"}]}]}
